The source of these data is PMC7664408, “Biaryl Sulfonamides Based on the 2-Azabicycloalkane Skeleton—Synthesis and Antiproliferative Activity” (Materials, 2020).

Where two headings read alike, the source gives them in different places. Where only a bound is given, the exact number is not on record here.

In general, melting point refers to the temperature, or range, at which the solid turns liquid.

In one series the test system is MV4-11. Nature of the series: In vitro antiproliferative assay, MTT, 72 h. In kind it is cell-based, human. Particulars: biphenotypic B cell myelomonocytic leukemia MV4-11, 72 h, n.a. = not active in the range of concentrations used (up to 100 µM), read-out: IC50 [µM] ± SD [n = 5] MV4-11.
The next series relates to MCF-7. Nature of the series: In vitro antiproliferative assay, SRB, 72 h. It counts as cell-based, human. Particulars: n.a. = not active in the range of concentrations used (up to 100 µM), read-out: IC50 [µM] ± SD [n = 5] MCF-7. An excerpt: (§1) The following human cancer cell lines, representing the most common types of cancer, were chosen for evaluation of the antiproliferative activity of the prepared sulfonamides: lung cancer (A549), breast cancer (MCF-7), colon adenocarcinoma (LoVo), and biphenotypic B cell myelomonocytic leukemia (MV4-11). As a reference, the normal mouse fibroblasts cell line (BALB/3T3) was applied. A549, LoVo and BALB/3T3 cell lines were purchased from the ATCC (American Type Culture Collection, Rockville, MD, USA), MCF-7 cell line—from EACC (The European Collection of Cell Cultures), and MV4-11 cell line was obtained from DSMZ (Leibniz Institute—German Collection of Microorganisms and Cell Culture, Braunschweig, Germany). All these lines were maintained at the Hirszfeld Institute of Immunology and Experimental Therapy (IIET) in Wrocław, Poland.
(§2) We used the following culture media: for A549 cell line: the mixture of RPMI 1640 and OptiMEM (1:1) medium (both from Gibco, Scotland, UK)), 2mM L-glutamine, 1mM sodium pyruvate (Sigma-Aldrich Chemie GmbH, Steinheim, Germany) and 5% fetal bovine serum (FBS; HyClone Laboratories, Logan, UT, USA). MCF-7 cells were cultured in Eagle’s medium (IIET, PAS, Wroclaw, Poland), 2mM L-glutamine and 10% of FBS supplemented with 0.8 mg/L of insulin (Sigma-Aldrich Chemie GmbH, Steinheim, Germany). For LoVo cell line, F12K medium was applied (American Type Culture Collection, Rockville, MD, USA-ATCC), with 5% FBS (HyClone Laboratories, Logan, UT, USA). MV4-11 cells were cultured in RPMI 1640/GlutaMax I medium (Gibco, Thermo Fisher Scientific, Leicestershire, UK) with 1 mM sodium pyruvate (Sigma-Aldrich Chemie GmbH, Steinheim, Germany) and 10% FBS (HyClone Laboratories). In case of BALB/3T3 cells, DMEM (Gibco, Thermo Fisher Scientific) supplemented with 2 mM L-glutamine and 5% FBS was used. Antibiotics: 100 U/mL penicillin (Polfa Tarchomin SA, Warsaw, Poland) and 100 µg/mL streptomycin (Sigma-Aldrich Chemie GmbH, Steinheim, Germany) were present in all the culture media; cells were cultured in a humid atmosphere containing 5% CO2 at 37 °C.
(§3) Twenty-four hours before addition of the tested compounds, each cell line was seeded in 96-well plastic plates (Sarstedt, Numbrecht, Germany) in an appropriate medium at 10^4 cells/well density, except MCF7 cell line: 0.75 × 10^4/well, and A549 cell line: 0.25 × 10^4/well. The studied cell lines were subjected to each of the tested sulfonamides at 4 different concentrations in the range of 100–0.1 µg/mL for 72 h. Cisplatin (Teva Pharmaceuticals, Poland) was used as a reference compound, and DMSO (Sigma-Aldrich Chemie GmbH, Steinheim, Germany) served as a solvent control at concentrations equivalent to these applied in the solutions of the tested sulfonamides. MTT assay was performed for leukemic cells, while sulforhodamine B assay (SRB) for the adherent cells.
(§4) After 72 h of incubation, cells were fixed in situ by gently adding of 50 µL per well of ice-cold 50% TCA (trichloroacetic acid, POCh, Gliwice, Poland) and were incubated at 4 °C for one hour. Each well was then washed five times with water, followed by addition of 50 µL of 0.4% solution of SRB (sulforhodamine B, Sigma-Aldrich Chemie GmbH, Steinheim, Germany) in 1% acetic acid (POCh, Gliwice, Poland), and plates were again incubated at RT for 0.5 h. Plates were washed five times with 1% acetic acid to remove the unbound dye. The stained cells were treated with 10 mM TRIS (Tris base, Sigma-Aldrich, Chemie GmbH, Steinheim, Germany). Absorbance at 540 nm in each well was read with Elisa plate reader (BioTek Synergy H4, Swindon, UK) using the Gen5 software.
(§5) The results are shown as average IC50 values (concentration of the compound causing inhibition of cell proliferation by 50%) ± standard deviation. IC50 values were determined using the Prolab-3 system based on Cheburator 0.4, a software developed by Nevozhay. At each concentration, sulfonamides were tested in triplicates in a single experiment. […]

For a further series, the system named is LoVo. As to the kind of experiment: In vitro antiproliferative assay, SRB, 72 h. It counts as cell-based, human. Particulars: colon adenocarcinoma LoVo, n.a. = not active in the range of concentrations used (up to 100 µM), read-out: IC50 [µM] ± SD [n = 5] LoVo.
From the text: as §1, §2, §3, §4, §5

The test system of a further series is A549. Nature of the series: In vitro antiproliferative assay, SRB, 72 h. In kind it is cell-based, human. Particulars: lung cancer A549, 72 h, n.a. = not active in the range of concentrations used (up to 100 µM), read-out: IC50 [µM] ± SD [n = 5] A549.
From the text: as §1, §2, §3, §4, §5

The next series has as its system BALB/3T3. As to the kind of experiment: In vitro antiproliferative assay on normal fibroblasts, SRB, 72 h. It counts as cell-based, mouse. Particulars: for selectivity: IC50 value for BALB/3T3 line times bigger than for leukemia cells MV4-11: IC50 BALB/3T3 versus IC50 MV4-11; for IC50: normal mouse fibroblasts BALB/3T3, 72 h, SRB, n.a. = not active in the range of concentrations used (up to 100 µM), read-out: IC50 [µM] ± SD [n = 5] Balb/3T3.
From the text: as §1, §2, §3, §4, §5

Where [1] appears, read: Homo sapiens, MCF7, breast cancer MCF-7, 72 h.

`C[C@@H](c1ccccc1)N1[C@H]2CC[C@H](C2)[C@@H]1CNS(=O)(=O)c1ccccc1` [Compound 11b, (1S,3R,4R)-N-((2-((S)-1-phenylethyl)-2-azabicyclo[2.2.1]heptan-3-yl)methyl) benzenesulfonamide] had a melting point of 107 to 109 °C. Further, in the series on MV4-11 (Homo sapiens), the IC50 turned out to be 52.7 ± 14 µM.
Molecule `C[C@@H](c1ccccc1)N1C(CN(C[C@H]2[C@@H]3CC[C@@H](C3)N2[C@@H](C)c2ccccc2)S(=O)(=O)c2ccc(-c3ccc(F)cc3)cc2)[C@@H]2CC[C@H]1C2` (stereo partly drawn) [Compound 13i, 4’-fluoro-N-(((1S,3R,4R)-2-((S)-1-phenylethyl)-2-azabicyclo[2.2.1]heptan-3-yl)methyl)-N-(((1S,4R)-2-((S)-1-phenylethyl)-2-azabicyclo[2.2.1]heptan-3-yl)methyl)-[1,1’-biphenyl]-4-sulfonamide] registered a melting point of 96 to 98 °C.
Consider `O=S(=O)(NC[C@H]1N[C@H]2CC[C@@H]1C2)c1ccc(-c2ccc(F)cc2)cc1` [Compound 10i, N-((1S,3S,4R)-2-azabicyclo[2.2.1]heptan-3-ylmethyl)-4’-fluoro-[1,1’-biphenyl]-4-sulfonamide], for which the melting point stood at 155 °C. Moreover, in the series on MCF-7 (setting [1]), the IC50 came out at 18 ± 2.82 µM. Also, in the series on LoVo (Homo sapiens), the IC50 turned out to be 21.7 ± 3.52 µM. Moreover, the IC50 in the series with A549 (Homo sapiens) was 32.9 ± 1.36 µM. Besides, in the series on BALB/3T3, the “selectivity: IC50 value for BALB/3T3 line times bigger than for leukemia cells MV4-11” value (from here on “selectivity: IC50 value”) is reported as approximately 4 times and the IC50 was found to be 24.4 ± 2.75 µM. Moreover, the IC50 in the series with MV4-11 (Homo sapiens) was 8.28 ± 2.21 µM.
As to `C[C@@H](c1ccccc1)N1[C@H]2CC[C@H](C2)[C@H]1CNS(=O)(=O)c1ccc(F)cc1` [Compound 11d, 4-fluoro-N-(((1S,3S,4R)-2-((S)-1-phenylethyl)-2-azabicyclo[2.2.1]heptan-3-yl)methyl)benzenesulfonamide], the melting point lay in the range of 105 to 107 °C. Further, the IC50 with LoVo (Homo sapiens) stood at 92.2 ± 12.7 µM. Moreover, the IC50 in the series on MV4-11 (Homo sapiens) amounted to 43.6 ± 14.5 µM.
On to `CC(c1ccccc1)N1C2CCC(C2)C1CN(CC1C2CCC(C2)N1C(C)c1ccccc1)S(=O)(=O)c1ccc(-c2ccccc2)cc1` (centres unmarked) [Compound 13f], for which the figures for the IC50 with LoVo (Homo sapiens), in the series on A549 (Homo sapiens) and in the series with MV4-11 (Homo sapiens) were 44.5 ± 10.9 µM, 84.4 ± 26.1 µM and 56.1 ± 26.9 µM, respectively.
Regarding `CC(c1ccccc1)N1C2CCC(C2)C1CNS(=O)(=O)c1ccc(-c2ccc(F)cc2)cc1` (centres unmarked) [Compound 11i], the IC50 in the series on MCF-7 (setting [1]) is 10.3 ± 2.71 µM; in the series with LoVo (Homo sapiens), 5.29 ± 2.56 µM; in the series on A549 (Homo sapiens) it was 2.98 ± 1.38 µM; with BALB/3T3, 13.1 ± 2.68 µM; with MV4-11 (Homo sapiens) it was 11.2 ± 2.14 µM.
For `N.N.[Cl][Pt][Cl]` [cisplatin, reference compound], the IC50 in the series on MCF-7 (breast cancer MCF-7, 72 h) was found to be 10.3 ± 6.23 µM; with LoVo, 11.8 ± 3.87 µM; in the series on A549, 3.02 ± 1.79 µM; with BALB/3T3, 10.7 ± 3.3 µM; in the series with MV4-11, 1.78 ± 1.22 µM.
`C[C@@H](c1ccccc1)N1[C@H]2CC[C@H](C2)[C@H]1CNS(=O)(=O)c1ccc(-c2ccccc2F)cc1` [Compound 11j, 2’-fluoro-N-(((1S,3S,4R)-2-((S)-1-phenylethyl)-2-azabicyclo[2.2.1]heptan-3-yl)methyl)-[1,1’-biphenyl]-4-sulfonamide] came in with a melting point of 95 °C. Also, the IC50 with MCF-7 (setting [1]) is 17.3 ± 2.29 µM. Moreover, the IC50 in the series on LoVo (Homo sapiens) came to 12.4 ± 2.44 µM. The IC50 in the series on A549 (Homo sapiens) is 11.3 ± 0.93 µM. Further, in the series with BALB/3T3, the IC50 is 12.3 ± 1.88 µM. Besides, the IC50 in the series on MV4-11 (Homo sapiens) is 7.15 ± 3.53 µM.
Take `CC(c1ccccc1)N1C2CCC(C2)C1CNS(=O)(=O)c1ccc(-c2ccccc2)cc1` (centres unmarked) [Compound 11f]: the IC50 in the series with MCF-7 (setting [1]) came out at 54 ± 16 µM; in the series on LoVo (Homo sapiens), 19.3 ± 6.71 µM; with A549 (Homo sapiens), 7.66 ± 2.08 µM; in the series on BALB/3T3, 38.8 ± 7.88 µM; in the series on MV4-11 (Homo sapiens), 3.09 ± 1.56 µM. Besides, in the series on BALB/3T3, the “selectivity: IC50 value” value is more than 10 times.
With `COc1ccc(-c2ccc(S(=O)(=O)NCC3C4CCC(C4)N3C(C)c3ccccc3)cc2)cc1` (centres unmarked) [Compound 11h], the IC50 worked out at 22.4 ± 4.31 µM with MCF-7 (setting [1]); 15.8 ± 2.26 µM in the series with LoVo (Homo sapiens); 12.8 ± 1.38 µM in the series on A549 (Homo sapiens); 12.4 ± 1.82 µM in the series on BALB/3T3; 13.8 ± 2.64 µM in the series on MV4-11 (Homo sapiens).
Turning to `CC(c1ccccc1)N1CC(NS(=O)(=O)c2ccc(-c3ccccc3)cc2)C2CCC1C2` (centres unmarked) [Compound 9f], the IC50 was determined as 18.8 ± 3.25 µM with MCF-7 (setting [1]); 14.5 ± 2.54 µM in the series on LoVo (Homo sapiens); 13.6 ± 1.1 µM with A549 (Homo sapiens); 14.1 ± 2.63 µM with BALB/3T3; 8.76 ± 3.45 µM in the series with MV4-11 (Homo sapiens).
Consider `Cc1ccc(S(=O)(=O)NC[C@H]2[C@@H]3CC[C@@H](C3)N2[C@@H](C)c2ccccc2)cc1` [Compound 11c, (1S,3R,4R)-4-methyl-N-((2-((S)-1-phenylethyl)-2-azabicyclo[2.2.1]heptan-3-yl)methyl) benzenesulfonamide], for which the melting point lay in the range of 124 to 127 °C. Also, in the series with LoVo (Homo sapiens), the IC50 turned out to be 83.2 ± 11.8 µM. In addition, the IC50 in the series with MV4-11 (Homo sapiens) came out at 29.6 ± 12.9 µM.
Regarding `Cc1ccc(-c2ccc(S(=O)(=O)NCC3C4CCC(C4)N3C(C)c3ccccc3)cc2)cc1` (centres unmarked) [Compound 11g], the IC50 in the series with MCF-7 (setting [1]) turned out to be 33 ± 18.9 µM; in the series on LoVo (Homo sapiens), 7.23 ± 16.2 µM; in the series with A549 (Homo sapiens), 14.1 ± 4.77 µM; with BALB/3T3, 45.3 ± 17.3 µM; in the series with MV4-11 (Homo sapiens), 4.26 ± 3.97 µM. Further, in the series on BALB/3T3, the “selectivity: IC50 value” value is recorded as more than 10 times.
Consider `CC(c1ccccc1)N1C2CCC(C2)C1CNS(=O)(=O)c1ccc(C(F)(F)F)cc1` (centres unmarked) [Compound 11e], for which the IC50 was 39.1 ± 7.14 µM in the series on MCF-7 (setting [1]); 33.7 ± 5.13 µM with LoVo (Homo sapiens); 38.4 ± 2.61 µM in the series on A549 (Homo sapiens); 37.5 ± 7.8 µM with BALB/3T3; 16.1 ± 4.95 µM with MV4-11 (Homo sapiens).
On to `COc1ccc(-c2ccc(S(=O)(=O)NC3CN(C(C)c4ccccc4)C4CCC3C4)cc2)cc1` (centres unmarked) [Compound 9h], for which the IC50 in the series with MCF-7 (setting [1]) was 16.3 ± 2.11 µM; in the series with LoVo (Homo sapiens), 11.8 ± 2.46 µM; with A549 (Homo sapiens) it was 9.13 ± 1.05 µM; in the series on BALB/3T3 it was 15.1 ± 2.11 µM; in the series on MV4-11 (Homo sapiens) it was 3.92 ± 1.74 µM. Further, in the series on BALB/3T3, the “selectivity: IC50 value” value is listed as approximately 3 times.
